From patent US11147803B2, “Dementia therapeutic agent combining pyrazoloquinoline derivative and memantine” (Eisai R&D Management Co., Ltd., priority 2017, dated 2021)

System: rats with scopolamine-induced cognitive impairment
Assay: Novel object recognition test using rats with scopolamine-induced cognitive impairment
Assay type: in vivo, rat (Long Evans)
Details: for percentage of exploration of the novel object in T2: scopolamine 0.7 mg/kg s.c., mean±standard error
Source text: [Test Example 1] Novel Object Recognition Test Using Rats with Scopolamine-Induced Cognitive Impairment
Acetylcholine nervous system disorder has been reported in Alzheimer's disease (Whitehouse et al., Science, 1982, vol. 215, p. 1237), and scopolamine-administered animals are utilizable as an animal model for Alzheimer's disease. Scopolamine is a muscarine receptor inhibitor which blocks acetylcholine nervous system transmission.
6-week-old male Long Evans rats (Institute for Animal Reproduction) were subjected to the test. A habituation process to the experimental procedure was carried out once per day for 2 days prior to the test. In the habituation process, a vehicle was administered to the rats, and then the rats were placed in an empty test apparatus (40 cm×30 cm×45 cm height) and allowed to explore for 3 minutes, and after then placed in a waiting chamber (13 cm×30 cm×45 cm height) for about 1 minute, they were returned to the empty test apparatus again and left for 5 minutes.
An acquisition trial (T1) was carried out on the day of the test. Compound (I) was orally administered 2 hours before T1. Memantine hydrochloride was orally administered 1 hour before T1. Scopolamine (Wako Pure Chemical Industries, Ltd.) was subcutaneously administered 30 minutes before T1 at a dose of 0.7 mg/kg. In T1, the rats were habituated to the empty test apparatus for 3 minutes and then placed in the waiting chamber. After setting two identical objects in the test apparatus, the rats were returned into the test apparatus again and allowed to freely explore the two identical objects for 5 minutes. The rats were then returned into their rearing cages. After 2 hours, a retention trial (T2) was carried out. The rats were placed in the empty test apparatus for 3 minutes for habituation, and were then transferred into the waiting chamber. After setting an object used in T1 (“familiar” object) and an object not used in T1 (“novel” object) in the test apparatus, the rats were again returned into the test apparatus and allowed to freely explore these objects for 3 minutes. The objects were wiped with a wet wipe impregnated with ethanol after each experiment so as to leave no trace of odor. The behaviors of the rats during T1 and T2 were recorded by a digital video camera, and the total exploration time for each object was manually measured using a stopwatch. Exploratory behavior was defined as the behavior in which the rat brings its nose within 2 cm of the object and directs its nose toward the object.
In the novel object recognition test, the percentage of exploration of the novel object in T2 is considered to be an index for amnesia, reflecting discrimination between the familiar object and the novel object. The percentage of exploration of the novel object was calculated by the following formula. The percentage of exploration of the novel object (%)=N/(N+F)×100 F: time spent in exploring the familiar object N: time spent in exploring the novel object
Rats whose total time spent in exploring the objects during T1 or T2 was 10 seconds or less or rats whose percentage of the time spent in exploring either of the objects during T1 was not less than 70% or not more than 30% of the total exploration time were excluded from the data analysis.
The results were expressed as mean±standard error. The difference between the normal control group untreated with scopolamine and the disease control group treated with scopolamine was analyzed by an unpaired t-test (significant difference: *). The difference between the disease control group and the single drug-treated group was analyzed by Dunnett-type multiple comparison test (significant difference: #). The difference between the combined treatment group and the single drug-treated group was analyzed by an unpaired t-test (significant difference: ※). A value of p<0.05 was judged to be a statistically significant difference. Statistical analysis was conducted using GraphPad Prism version 5.04 or 6.02.

| SMILES | percentage of exploration of the novel object in T2 (Compound (I) 0.3 mg/kg orally 2 hours before T1) | percentage of exploration of the novel object in T2 (Compound (I) 1 mg/kg orally 2 hours before T1) | percentage of exploration of the novel object in T2 (Compound (I) 3.3 mg/kg orally 2 hours before T1, # significant vs disease control) | percentage of exploration of the novel object in T2 (Compound (I) 10 mg/kg orally 2 hours before T1, # significant vs disease control) | ameliorative effect on the percentage of exploration of the novel object (significance vs disease control) (compound (I) 1 mg/kg (Table 1)) | ameliorative effect on the percentage of exploration of the novel object (significance vs disease control) (compound (I) 3.3 mg/kg (Table 2)) | percentage of exploration of the novel object in T2 (Memantine 1 mg/kg orally 1 hour before T1) | percentage of exploration of the novel object in T2 (Memantine 3 mg/kg orally 1 hour before T1, # significant vs disease control) | percentage of exploration of the novel object in T2 (Memantine 10 mg/kg orally 1 hour before T1) | ameliorative effect on the percentage of exploration of the novel object (significance vs disease control) (memantine hydrochloride 1 mg/kg alone (Table 4)) | ameliorative effect on the percentage of exploration of the novel object (significance vs disease control) (memantine hydrochloride 3 mg/kg (Table 3)) |
| --- | --- | --- | --- | --- | --- | --- | --- | --- | --- | --- | --- |
| COc1ncc(C)c(-c2ccc3c(c2)[nH]c(=O)c2cnn([C@H]4CCOC4)c23)c1C [Compound (I), (S)-7-(2-methoxy-3,5-dimethylpyridin-4-yl)-1-(tetrahydrofuran-3-yl)-1H-pyrazolo[4,3-c]quinoline-4(5H)-one] | 58.7 ± 3.2% | 59.9 ± 3.4% | 68.5 ± 2.0# % | 68.5 ± 1.6# % | did not exhibit a significant effect | significant ameliorative effect |  |  |  |  |  |
| CC12CC3CC(C)(C1)CC(N)(C3)C2 [Memantine, memantine] |  |  |  |  |  |  | 58.1 ± 2.4% | 68.9 ± 4.0# % | 59.9 ± 3.8% | no significant ameliorative effect | significant ameliorative effect |
